Data published in US12023348B2, “EGR1 targeting molecules for the treatment of inflammatory and hyperproliferative conditions” (The Medical Research, Infrastructure and Health Services …, priority 2015, dated 2024).

Tested on: imiquimod-induced psoriasiform dermatitis
Assay: Imiquimod-induced psoriasiform dermatitis in mice
Format: in vivo
Conditions: for Overt toxicity / Inflammatory infiltrate / Epidermal thickness / Index of proliferation (Ki67): i.p. five times a week, CaCx 22.5 mg/kg or ApDx 7.5 mg/kg; for Overt toxicity: 5 days; for Inflammatory infiltrate: biopsies after 5 days; for Epidermal thickness / Index of proliferation (Ki67): biopsies after 5 days (FIG. 5A); for EGR1 RNA levels in treated skin: quantitative PCR vs vehicle group (FIG. 5B); for EGR1 RNA levels in treated skin / IL-33 RNA levels in treated skin: CaCx 22.5 mg/kg or ApDx 7.5 mg/kg i.p.; for IL-33 RNA levels in treated skin: quantitative PCR vs vehicle group (FIG. 5C)
Protocol: Balb/c mice (Harlan Laboratories Ltd, Jerusalem, Israel), 9 weeks of age, were maintained in a pathogen-free animal facility. Animal care and research protocols had been approved by the institutional committee for animal use. Imiquimod 5% (Perrigo, Israel) was used as topical treatment for the mice on their upper backs. Mice were injected i.p. five times a week with DMSO or 7.5-22.5 mg/kg of ApDx and CaCx, respectively (NCI). 10% DMSO in […] was used as a vehicle control.
Formaldehyde-fixed 5-μm paraffin-embedded sections from skin biopsies were deparaffinized and treated with 3% H2O2 in methanol for 15 minutes at room temperature, warmed in a microwave oven in citrate buffer in a pressure cooker for 25 minutes, and stained with a monoclonal anti-Ki67 antibody (Thermo Scientific) for 1 hour at room temperature. Following 3 washings (10 minutes each) with phosphate-buffered saline (PBS), the antibodies were imaged using the ABC technique (Zymed Laboratories, South San Francisco, CA) and the slides were counterstained with hematoxylin.
Epidermal thickness was defined as the distance between the granular layer and the basement membrane and was measured at 10 randomly selected locations for each biopsy using NIS-Elements BR 3.2 software (Nikon, NY USA). An image was taken and was manually measured in the software by selecting an upper and lower border, as defined above. The distance was measured in microns.
RNA was extracted from cell cultures using an RNA extraction kit (Roche Diagnostics, Mahheim, Germany). cDNA was synthesized from 500 ng of total RNA using the Verso cDNA kit (Thermo Fisher Scientific, Waltham, MA, USA). cDNA PCR amplification was carried out using the Fast SYBR Green Master Mix in a StepOnePlus™ Real-Time PCR System (Applied Biosystems, Foster City, CA, USA) with gene-specific intron-crossing oligonucleotide pairs listed in Table 1 (below). For quantification, standard curves were obtained using serially diluted cDNA amplified in the same qRT-PCR run. The melting temperature (Tm) of the amplified products was measured to confirm the specificity of the reaction conditions. Cycling conditions were as follows: 95° C. for 10 minutes, 95° C. for 10 seconds, 62° C. for 15 seconds, and 72° C. for 25 seconds for a total of 40 cycles. Each sample was analyzed in triplicate. mRNA expression level for target gene was normalized to GAPDH. The results are based the amount of target, normalized to an endogenous reference (IACTB) and relative to a calibrator, as calculated by 2-ΔΔCT. All samples were run in triplicate. The expression levels of target genes were expressed as mRNA relative units.
This hypothesis was tested in a murine model in which psoriasiform dermatitis was induced using imiquimod [as previously described in Tortola, L. et al. (2012) J Clin Invest 122, 3965-76].
Balb/c mice were treated topically with imiquimod and were injected five times a week i.p. with either the vehicle, 22.5 mg/kg of CaCx or 7.5 mg/kg of ApDx.
After 5 days, biopsies were obtained from the treated skin and stained for hematoxylin and eosin as well as for Ki67 (FIGS. 4A-F), as a surrogate marker for cellular proliferation.

Compound	Overt toxicity	Inflammatory infiltrate	Epidermal thickness	Index of proliferation (Ki67)	EGR1 RNA levels in treated skin	IL-33 RNA levels in treated skin
CCCN1c2ccc(N)cc2S(=O)(=O)c2cc(Cl)cc(Cl)c21 [Compound 629971, 7,9-dichloro-5,5-dioxo-10-propylphenothiazin-3-amine]	No overt toxicity	did not affect	decrease	decrease	significant decrease	significant decrease
Cc1c2ccnc(C(N)=O)c2c(C)c2c1[nH]c1ccccc12.Cl [Compound 335142, 6H-Pyrido[4,3-b]carbazole-1-carboxamide, 5,11-dimethyl-, monohydrochloride]	No overt toxicity	did not affect	decrease	decrease	significant decrease	significant decrease
